Measured values from US20200236940A1, “2-(HET)ARYL-SUBSTITUTED FUSED HETEROCYCLE DERIVATIVES AS PESTICIDES” (Bayer Aktiengesellschaft, priority 2017, published 2020).

Experiments:
Format in all cases: in vivo
Ctenocephalides felis [1] = assay: Ctenocephalides felis oral test; conditions: application rate 100 ppm, after 2 days
Procedure: Ctenocephalides felis—Oral Test Solvent: dimethyl sulfoxide To produce a suitable active ingredient formulation, 10 mg of active ingredient are mixed with 0.5 ml of dimethyl sulfoxide. Dilution with citrated cattle blood gives the desired concentration. About 20 unfed adult cat fleas (Ctenocephalides felis) are placed into a chamber which is closed at the top and bottom with gauze. A metal cylinder whose bottom end is closed with parafilm is placed onto the chamber. The cylinder contains the blood/active ingredient formulation, which can be imbibed by the fleas through the parafilm membrane. After 2 days, the kill in % is determined. 100% means that all of the fleas have been killed; 0% means that none of the fleas have been killed.

Boophilus microplus = Boophilus microplus injection test; conditions: application rate 20 μg/animal, after 7 days, laying of fertile eggs
Procedure: Boophilus microplus—Injection Test Solvent: dimethyl sulfoxide To produce a suitable active ingredient formulation, 10 mg of active ingredient are mixed with 0.5 ml of solvent and the concentrate is diluted to the desired concentration with solvent. 1 μl of the active ingredient solution is injected into the abdomen of 5 engorged adult female cattle ticks (Boophilus microplus). The animals are transferred into dishes and kept in a climate-controlled room. Efficacy is assessed after 7 days by laying of fertile eggs. Eggs which are not visibly fertile are stored in a climate-controlled cabinet until the larvae hatch after about 42 days. An efficacy of 100% means that none of the ticks has laid any fertile eggs; 0% means that all the eggs are fertile.

Myzus persicae [2] = assay: Myzus persicae spray test (MYZUPE), Chinese cabbage leaf discs; conditions: foliar, 120 h
Procedure: Myzus persicae—Spray Test [table] To produce a suitable active ingredient formulation, 1 part by weight of active ingredient is dissolved with the specified parts by weight of solvent and made up to the desired concentration with water containing an emulsifier concentration of 1000 ppm. To produce further test concentrations, the formulation is diluted with emulsifier-containing water. Discs of Chinese cabbage leaves (Brassica pekinensis) infested by all stages of the green peach aphid (Myzus persicae) are sprayed with an active ingredient formulation of the desired concentration. After 5 days, the efficacy in % is determined. 100% means that all the aphids have been killed; 0% means that no aphids have been killed. Myzus persicae—Spray Test (MYZUPE) [table] To produce a suitable active ingredient formulation, 1 part by weight of active ingredient is dissolved with the specified parts by weight of solvent and made up to the desired concentration with water containing an emulsifier concentration of 1000 ppm. To produce further test concentrations, the formulation is diluted with emulsifier-containing water. Discs of Chinese cabbage leaves (Brassica pekinensis) infested by all stages of the green peach aphid (Myzus persicae) are sprayed with an active ingredient formulation of the desired concentration. After the desired period of time, the efficacy in % is determined. 100% means that all the aphids have been killed; 0% means that no aphids have been killed.

Lucilia cuprina = Lucilia cuprina test; conditions: after 2 days, L1 larvae
Procedure: Lucilia cuprina Test Solvent: dimethyl sulfoxide To produce a suitable active ingredient formulation, 10 mg of active ingredient are mixed with 0.5 ml of dimethyl sulfoxide, and the concentrate is diluted with water to the desired concentration. About 20 L1 larvae of the Australian sheep blowfly (Lucilia cuprina) are transferred into a test vessel containing minced horsemeat and the active ingredient formulation of the desired concentration. After 2 days, the kill in % is determined. 100% means that all the larvae have been killed; 0% means that no larvae have been killed.

Phaedon cochleariae [3] = assay: Phaedon cochleariae spray test, Chinese cabbage leaf discs; conditions: foliar, 168 h, application rate 100 g/ha, after 7 days, larvae, read-out: efficacy
Procedure: Phaedon cochleariae—Spray Test
(§1) To produce a suitable active ingredient formulation, 1 part by weight of active ingredient is dissolved with the specified parts by weight of solvent and made up to the desired concentration with water containing an emulsifier concentration of 1000 ppm. To produce further test concentrations, the formulation is diluted with emulsifier-containing water.
After 7 days, the efficacy in % is determined. 100% means that all the beetle larvae have been killed; 0% means that no beetle larvae have been killed.

Musca domestica = Musca domestica test; conditions: application rate 100 ppm, after 2 days, adult houseflies
Procedure: Musca domestica Test Solvent: dimethyl sulfoxide To produce a suitable active ingredient formulation, 10 mg of active ingredient are mixed with 0.5 ml of dimethyl sulfoxide, and the concentrate is diluted with water to the desired concentration. Vessels containing a sponge treated with sugar solution and the desired concentration of active ingredient formulation are populated with 10 adult houseflies (Musca domestica). After 2 days, the kill in % is determined. 100% means that all the flies were killed; 0% means that no flies were killed.

Myzus persicae [4] = assay: Myzus persicae oral test; conditions: 120 h, application rate 4 ppm, after 5 days, read-out: efficacy
Procedure: Myzus persicae—Oral Test Solvent: 100 parts by weight of acetone To produce a suitable active ingredient formulation, 1 part by weight of active ingredient is dissolved with the stated parts by weight of solvent and made up to the desired concentration with water. 50 μl of the active ingredient formulation are transferred into microtitre plates and made up to a final volume of 200 μl with 150 μl of IPL41 insect medium (33%+15% sugar). Subsequently, the plates are sealed with parafilm, which a mixed population of green peach aphids (Myzus persicae) within a second microtitre plate is able to puncture and imbibe the solution. After 5 days, the efficacy in % is determined. 100% means that all the aphids have been killed; 0% means that no aphids have been killed.

Myzus persicae [5] = assay: Myzus persicae spray test, bell pepper plants; conditions: application rate 20 ppm, after 6 days
Procedure: Myzus persicae—Spray Test Solvent: 14 parts by weight of dimethylformamide Emulsifier: alkylaryl polyglycol ether To produce a suitable active ingredient formulation, 1 part by weight of active ingredient is dissolved with the specified parts by weight of solvent and made up to the desired concentration with water containing an emulsifier concentration of 1000 ppm. To produce further test concentrations, the formulation is diluted with emulsifier-containing water. If the addition of ammonium salts or/and penetrants is required, these are each added in a concentration of 1000 ppm to the formulation solution. Bell pepper plants (Capsicum annuum) severely infested with the green peach aphid (Myzus persicae) are treated by spraying with the active ingredient formulation in the desired concentration. After 6 days, the kill in % is determined. 100% means that all of the aphids have been killed; 0% means that none of the aphids have been killed.

Ctenocephalides felis [6] = assay: Ctenocephalides felis in vitro contact test with adult cat fleas; conditions: application rate 5 μg/cm^2 (=500 g/ha), after 48 h
Procedure: Ctenocephalides felis—In Vitro Contact Tests with Adult Cat Fleas For the coating of the test tubes, 9 mg of active ingredient are first dissolved in 1 ml of acetone p.a. and then diluted to the desired concentration with acetone p.a. 250 μl of the solution are distributed homogeneously on the inner walls and the base of a 25 ml glass tube by turning and rocking on an orbital shaker (rocking rotation at 30 rpm for 2 h). With 900 ppm of active ingredient solution and internal surface area 44.7 cm^2, given homogeneous distribution, an area-based dose of 5 μg/cm^2 is achieved. After the solvent has evaporated off, the tubes are populated with 5-10 adult cat fleas (Ctenocephalides felis), sealed with a perforated plastic lid and incubated in a horizontal position at room temperature and ambient humidity. After 48 h, efficacy is determined. To this end, the tubes are stood upright and the fleas are knocked to the base of the tube. Fleas which remain motionless at the base or move in an uncoordinated manner are considered to be dead or moribund. […] 100% efficacy means that all the fleas were dead or moribund. 0% efficacy means that no fleas were harmed.

Spodoptera frugiperda [7] = assay: Spodoptera frugiperda spray test (SPODFR S), cotton leaves; conditions: 168 h, 7 dat, read-out: % efficacy
Procedure: Spodoptera frugiperda—Spray Test (SPODFR S) Solvent: 14 parts by weight of dimethylformamide Emulsifier: alkylaryl polyglycol ether To produce a suitable active ingredient formulation, 1 part by weight of active ingredient is dissolved with the specified parts by weight of solvent and made up to the desired concentration with water containing an emulsifier concentration of 1000 ppm. To produce further test concentrations, the formulation is diluted with emulsifier-containing water. If the addition of ammonium salts or/and penetrants is required, these are each added in a concentration of 1000 ppm to the formulation solution. Cotton leaves (Gossypium hirsutum) are sprayed with an active ingredient formulation of the desired concentration and populated with caterpillars of the armyworm (Spodoptera frugiperda). After the desired time, the kill in % is determined. 100% means that all caterpillars have been killed; 0% means that none of the caterpillars have been killed.

Nilaparvata lugens = Nilaparvata lugens spray test (NILALU); conditions: 96 h, 4 dat, read-out: % efficacy
Procedure: Nilaparvata lugens—Spray Test (NILALU)
as §1, with “water. If the addition of ammonium salts or/and penetrants is required, these are each added in a concentration of 1000 ppm to the formulation solution.” for “water.”
Rice plants (Oryza sativa) are sprayed with an active ingredient formulation of the desired concentration and then populated with larvae of the brown planthopper (Nilaparvata lugens).
[…], the efficacy in % is determined. 100% means that all of the planthoppers have been killed; 0% means that none of the planthoppers have been killed.

Spodoptera frugiperda [8] = assay: Spodoptera frugiperda drench test (SPODFR D); conditions: soil, 336 h, 14 dat, read-out: % efficacy
Procedure: Spodoptera frugiperda—Drench Test (SPODFR D) [table] To produce a suitable active ingredient formulation, 1 part by weight of active ingredient is mixed with the specified amounts of solvent and emulsifier, and the concentrate is diluted with water to the desired concentration, it being necessary to take into account the volume of soil which is drenched. It should be ensured that a concentration of 40 ppm of emulsifier in the soil is not exceeded. To produce further test concentrations, water is used for dilution. Maize plants (Zea mays) in pots of soil are watered with an active ingredient formulation of the desired concentration and infected with caterpillars of the armyworm (Spodoptera frugiperda). After the desired time, the kill in % is determined. 100% means that all caterpillars have been killed; 0% means that none of the caterpillars have been killed.

Nezara viridula = Nezara viridula spray test; conditions: 96 h, NEZAVI, 500 g of ai/ha, 4 dat, read-out: % efficacy
Procedure: Nezara viridula—Spray Test [table] To produce a suitable active ingredient formulation, 1 part by weight of active ingredient is dissolved with the specified parts by weight of solvent and made up to the desired concentration with water containing an emulsifier concentration of 1000 ppm. To produce further test concentrations, the formulation is diluted with emulsifier-containing water. If the addition of ammonium salts or/and penetrants is required, these are each added in a concentration of 1000 ppm to the formulation solution. Barley plants (Hordeum vulgare) infected with larvae of the Southern green shield bug (Nezara viridula) are sprayed with an active ingredient formulation of the desired concentration. After the desired period of time, the efficacy in % is determined. 100% means that all of the shield bugs have been killed; 0% means that none of the shield bugs have been killed.

Phaedon cochleariae [9] = assay: Phaedon cochleariae spray test (PHAECO), cabbage leaves; conditions: 168 h, 7 dat, read-out: % efficacy
Procedure: Phaedon cochleariae—Spray Test (PHAECO)
Solvent: 14 parts by weight of dimethylformamide
Emulsifier: alkylaryl polyglycol ether
as §1, with “water. If the addition of ammonium salts or/and penetrants is required, these are each added in a concentration of 1000 ppm to the formulation solution.” for “water.”
Cabbage leaves (Brassica oleracea) are sprayed with an active ingredient formulation of the desired concentration and populated with larvae of the mustard beetle (Phaedon cochleariae).
After the desired time, the kill in % is determined. 100% means that all the beetle larvae have been killed; 0% means that no beetle larvae have been killed.

`CCS(=O)(=O)c1ccc(-n2cncn2)nc1-c1nc2cc(C(F)(F)F)nc(C)c2n1C` [Example I-003] was tested, and the “efficacy (kill)” value (Ctenocephalides felis [1]) was 100%, the efficacy (Boophilus microplus) was 100% and the pest or weed control at 20 g/ha (Myzus persicae [2]; application rate 20 g/ha, after 5 days, read-out: efficacy) was 90%. The “efficacy (kill)” value (Lucilia cuprina; application rate 100 ppm) was 100%, the pest or weed control at 100 g/ha (Phaedon cochleariae [3]) was 83% and the “efficacy (kill)” value (Musca domestica) was 100%. For the same molecule, the pest or weed control at 4 ppm (Myzus persicae [4]) was 100%.
`CCS(=O)(=O)c1ccc(-n2ccnn2)nc1-c1nc2cc(C(F)(F)F)nc(C)c2n1C` [Example I-013] was tested, and the “efficacy (kill)” value (Ctenocephalides felis [1]) was 100%, the “efficacy (kill)” value (Myzus persicae [5]) was 100% and the Emax at 4 g/ha (Myzus persicae [2]; MYZUPE, 4 g of ai/ha, 5 dat, read-out: % efficacy) was 70%. The efficacy (Ctenocephalides felis [6]) was 100%, the “efficacy (kill)” value (Lucilia cuprina; application rate 20 ppm) was 80% and the “efficacy (kill)” value (Lucilia cuprina; application rate 100 ppm) was 100%. The pest or weed control at 100 g/ha (Phaedon cochleariae [3]) was 83%, the “efficacy (kill)” value (Musca domestica) was 100% and the pest or weed control at 4 ppm (Myzus persicae [4]) was 100%.
Molecule `CCS(=O)(=O)c1ccc(-n2ncn(-c3ccc(Cl)cc3)c2=O)nc1-c1nc2cc(C(F)(F)F)ncc2n1C` [Prior art WO 2017/055185 (Ex. I-19), reference compound] has an Emax at 4 ppm (Spodoptera frugiperda [7]) of 35%, an Emax at 100 g/ha (Nilaparvata lugens; 100 g of ai/ha) of 0% and an Emax at 500 g/ha (Nilaparvata lugens; 500 g of ai/ha) of 0%. For the same molecule, the Emax at 20 ppm (Spodoptera frugiperda [8]) was 0%, the Emax at 500 g/ha (Nezara viridula) was 0% and the Emax at 20 g/ha (Myzus persicae [2]; MYZUPE, 20 g of ai/ha, 5 dat, read-out: % efficacy) was 0%. For the same molecule, the Emax at 100 g/ha (Myzus persicae [2]; MYZUPE, 100 g of ai/ha, 5 dat, read-out: % efficacy) was 0% and the Emax at 0.8 ppm (Phaedon cochleariae [9]) was 70%.
